Test results from article PMC5428509, “Irreversible inhibition of BTK kinase by a novel highly selective inhibitor CHMFL-BTK-11 suppresses inflammatory response in rheumatoid arthritis model” (Scientific Reports, 2017).

Assays:
Experiment in all cases: biochemical
Parameters in all cases: KinomeScan competition binding panel (DiscoveRx), percent of control at 1 uM
Conditions in all cases: read-out: Percent Control
[1] = molecular target: MST1R (Homo sapiens, UniProt Q04912)
Summary of the method: (§1)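 KinomeScan technology used to profile binding across a panel of 456 kinases and mutants.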

[2] = molecular target: LIMK2 (Homo sapiens, UniProt P53671)
Sequence of LIMK2 (P53671 whole entry): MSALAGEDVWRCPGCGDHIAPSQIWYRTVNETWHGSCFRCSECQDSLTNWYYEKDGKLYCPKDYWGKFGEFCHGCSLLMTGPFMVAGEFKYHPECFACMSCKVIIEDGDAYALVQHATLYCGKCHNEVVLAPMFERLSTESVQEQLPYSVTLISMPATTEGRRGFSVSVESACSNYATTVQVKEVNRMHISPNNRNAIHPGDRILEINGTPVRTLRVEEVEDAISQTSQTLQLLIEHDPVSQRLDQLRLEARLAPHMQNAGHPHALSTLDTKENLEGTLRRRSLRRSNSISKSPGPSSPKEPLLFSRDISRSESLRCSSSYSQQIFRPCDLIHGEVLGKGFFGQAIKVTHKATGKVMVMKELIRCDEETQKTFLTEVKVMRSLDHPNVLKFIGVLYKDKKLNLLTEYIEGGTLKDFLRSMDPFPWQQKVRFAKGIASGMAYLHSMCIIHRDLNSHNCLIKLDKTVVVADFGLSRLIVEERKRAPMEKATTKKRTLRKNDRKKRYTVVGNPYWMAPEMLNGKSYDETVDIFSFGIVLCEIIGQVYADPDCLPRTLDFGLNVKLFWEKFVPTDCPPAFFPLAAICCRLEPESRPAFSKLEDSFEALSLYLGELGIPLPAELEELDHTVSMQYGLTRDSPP
Summary of the method: as §1

[3] = molecular target: SBK1 (Homo sapiens, UniProt Q52WX2)
Summary of the method: as §1

[4] = molecular target: AURKB (Homo sapiens, UniProt Q96GD4)
Summary of the method: as §1

[5] = molecular target: GAK (Homo sapiens, UniProt O14976)
Sequence of GAK (O14976 whole entry): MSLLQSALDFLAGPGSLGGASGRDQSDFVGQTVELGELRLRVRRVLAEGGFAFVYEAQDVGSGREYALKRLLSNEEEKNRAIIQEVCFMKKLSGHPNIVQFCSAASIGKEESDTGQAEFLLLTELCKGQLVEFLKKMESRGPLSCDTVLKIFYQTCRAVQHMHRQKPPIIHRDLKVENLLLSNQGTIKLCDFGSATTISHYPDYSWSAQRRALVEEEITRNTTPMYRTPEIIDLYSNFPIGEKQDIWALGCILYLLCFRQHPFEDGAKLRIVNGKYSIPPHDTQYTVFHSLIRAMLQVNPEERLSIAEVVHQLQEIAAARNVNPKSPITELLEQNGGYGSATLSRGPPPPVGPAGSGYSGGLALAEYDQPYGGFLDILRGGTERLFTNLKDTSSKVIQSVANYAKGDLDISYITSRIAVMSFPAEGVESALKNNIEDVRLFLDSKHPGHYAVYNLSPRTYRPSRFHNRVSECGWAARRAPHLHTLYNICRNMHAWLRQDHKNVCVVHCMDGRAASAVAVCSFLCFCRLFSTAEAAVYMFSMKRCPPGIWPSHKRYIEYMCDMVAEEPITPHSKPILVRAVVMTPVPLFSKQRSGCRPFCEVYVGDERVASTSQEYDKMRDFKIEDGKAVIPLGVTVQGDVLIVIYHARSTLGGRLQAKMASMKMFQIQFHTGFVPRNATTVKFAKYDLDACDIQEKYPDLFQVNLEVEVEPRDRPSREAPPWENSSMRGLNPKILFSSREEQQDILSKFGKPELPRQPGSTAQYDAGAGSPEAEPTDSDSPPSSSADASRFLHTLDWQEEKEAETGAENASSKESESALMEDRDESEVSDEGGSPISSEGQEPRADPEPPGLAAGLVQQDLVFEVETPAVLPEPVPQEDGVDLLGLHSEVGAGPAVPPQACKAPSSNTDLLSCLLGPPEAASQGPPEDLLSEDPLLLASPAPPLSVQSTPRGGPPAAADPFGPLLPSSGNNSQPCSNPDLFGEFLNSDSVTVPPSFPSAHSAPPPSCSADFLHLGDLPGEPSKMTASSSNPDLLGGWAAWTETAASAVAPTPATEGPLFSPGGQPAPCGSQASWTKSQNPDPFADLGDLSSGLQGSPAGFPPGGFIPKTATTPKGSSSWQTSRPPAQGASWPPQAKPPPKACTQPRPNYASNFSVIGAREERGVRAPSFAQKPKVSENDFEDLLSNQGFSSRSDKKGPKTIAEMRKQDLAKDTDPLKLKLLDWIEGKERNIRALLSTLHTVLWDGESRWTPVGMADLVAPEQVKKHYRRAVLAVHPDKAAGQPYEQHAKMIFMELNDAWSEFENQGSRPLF
Summary of the method: as §1

[6] = molecular target: T1, LZK (Homo sapiens, UniProt O43283)
T1 construct: gene MAP3K13
Summary of the method: as §1

[7] = molecular target: PIK3CA(E545K) (Homo sapiens, UniProt P42336, E545K)
Summary of the method: as §1

[8] = molecular target: CSNK1A1 (Homo sapiens, UniProt P48729)
Sequence of CSNK1A1 (P48729 whole entry): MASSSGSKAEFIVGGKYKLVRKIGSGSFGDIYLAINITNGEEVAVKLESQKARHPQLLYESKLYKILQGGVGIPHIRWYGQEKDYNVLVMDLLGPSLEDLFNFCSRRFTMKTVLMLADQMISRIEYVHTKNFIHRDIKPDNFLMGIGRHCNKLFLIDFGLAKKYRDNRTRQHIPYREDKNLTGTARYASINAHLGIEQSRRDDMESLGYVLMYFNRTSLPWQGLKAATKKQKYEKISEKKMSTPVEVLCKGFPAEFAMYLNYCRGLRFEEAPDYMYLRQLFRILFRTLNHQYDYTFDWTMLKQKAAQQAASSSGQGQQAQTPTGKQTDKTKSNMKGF
Summary of the method: as §1

[9] = molecular target: T2, CDC2L5 (Homo sapiens, UniProt Q14004)
T2 construct: gene CDK13
Summary of the method: as §1

[10] = molecular target: T3, ABL1-nonphosphorylated (Homo sapiens, UniProt P00519)
T3 construct: nonphosphorylated
Summary of the method: as §1

[11] = molecular target: CDK2 (Homo sapiens, UniProt P24941)
Summary of the method: as §1

[12] = molecular target: T4, MLCK (Homo sapiens, UniProt Q32MK0)
T4 construct: gene MYLK3
Summary of the method: as §1

[13] = molecular target: T5, CDC2L2 (Homo sapiens, UniProt Q9UQ88)
T5 construct: gene CDK11A
Summary of the method: as §1

[14] = molecular target: MYLK (Homo sapiens, UniProt Q15746)
Summary of the method: as §1

[15] = molecular target: SNRK (Homo sapiens, UniProt Q9NRH2)
Summary of the method: as §1

[16] = molecular target: T6, MST2 (Homo sapiens, UniProt Q13188)
T6 construct: gene STK3
Summary of the method: as §1

[17] = molecular target: CSF1R (Homo sapiens, UniProt P07333)
Sequence of CSF1R (P07333 whole entry): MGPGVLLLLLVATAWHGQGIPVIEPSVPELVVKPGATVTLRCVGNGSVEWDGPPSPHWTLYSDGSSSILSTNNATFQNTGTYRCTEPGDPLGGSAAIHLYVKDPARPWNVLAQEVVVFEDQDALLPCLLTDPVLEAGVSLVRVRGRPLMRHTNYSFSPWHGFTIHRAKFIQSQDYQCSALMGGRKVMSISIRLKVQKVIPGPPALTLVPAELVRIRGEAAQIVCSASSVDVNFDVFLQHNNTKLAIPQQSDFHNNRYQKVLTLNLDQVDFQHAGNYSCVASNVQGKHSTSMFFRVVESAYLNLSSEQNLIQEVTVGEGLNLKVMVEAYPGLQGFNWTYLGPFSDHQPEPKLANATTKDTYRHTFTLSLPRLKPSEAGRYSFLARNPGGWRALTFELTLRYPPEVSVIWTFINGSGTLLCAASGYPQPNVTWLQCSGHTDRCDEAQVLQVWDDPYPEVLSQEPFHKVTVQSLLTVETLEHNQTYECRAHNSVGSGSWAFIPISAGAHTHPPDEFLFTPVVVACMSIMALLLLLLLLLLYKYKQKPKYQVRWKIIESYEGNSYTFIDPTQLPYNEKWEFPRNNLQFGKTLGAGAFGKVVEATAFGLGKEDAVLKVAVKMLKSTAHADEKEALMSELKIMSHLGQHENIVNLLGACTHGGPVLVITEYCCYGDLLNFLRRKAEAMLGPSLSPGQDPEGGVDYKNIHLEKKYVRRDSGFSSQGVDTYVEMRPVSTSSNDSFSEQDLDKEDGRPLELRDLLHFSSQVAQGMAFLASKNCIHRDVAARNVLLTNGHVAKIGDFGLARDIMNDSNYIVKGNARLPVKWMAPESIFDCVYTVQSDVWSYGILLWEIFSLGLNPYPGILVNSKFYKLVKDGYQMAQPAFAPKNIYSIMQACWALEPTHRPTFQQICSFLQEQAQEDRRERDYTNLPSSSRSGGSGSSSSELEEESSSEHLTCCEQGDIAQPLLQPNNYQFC
Summary of the method: as §1

[18] = molecular target: EGFR(L747-E749del, A750P) (Homo sapiens, UniProt P00533, A750P/DEL747-749)
Summary of the method: as §1

[19] = molecular target: NEK11 (Homo sapiens, UniProt Q8NG66)
Summary of the method: as §1

[20] = molecular target: EGFR(E746-A750del) (Homo sapiens, UniProt P00533, DEL746-750)
Summary of the method: as §1

[21] = molecular target: T7, ERK2 (Homo sapiens, UniProt P28482)
T7 construct: gene MAPK1
T7 sequence (P28482 whole entry): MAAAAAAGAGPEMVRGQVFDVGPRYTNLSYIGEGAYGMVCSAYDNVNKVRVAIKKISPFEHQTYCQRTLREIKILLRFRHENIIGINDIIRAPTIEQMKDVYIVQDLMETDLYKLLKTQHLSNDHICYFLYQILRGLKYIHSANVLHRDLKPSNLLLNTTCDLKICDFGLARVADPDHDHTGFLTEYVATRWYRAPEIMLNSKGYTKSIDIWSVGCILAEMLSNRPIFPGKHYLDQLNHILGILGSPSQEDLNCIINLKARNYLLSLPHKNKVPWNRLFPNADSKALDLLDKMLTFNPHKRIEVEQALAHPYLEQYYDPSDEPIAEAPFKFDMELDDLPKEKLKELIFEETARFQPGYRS
Summary of the method: as §1

[22] = molecular target: FLT3(N841I) (Homo sapiens, UniProt P36888, N841I)
Summary of the method: as §1

[23] = molecular target: ROCK1 (Homo sapiens, UniProt Q13464)
Summary of the method: as §1

[24] = molecular target: BUB1 (Homo sapiens, UniProt O43683)
Summary of the method: as §1

[25] = molecular target: T8, JNK1 (Homo sapiens, UniProt P45983)
T8 construct: gene MAPK8
Summary of the method: as §1

Sequence of MST1R (Q04912 whole entry): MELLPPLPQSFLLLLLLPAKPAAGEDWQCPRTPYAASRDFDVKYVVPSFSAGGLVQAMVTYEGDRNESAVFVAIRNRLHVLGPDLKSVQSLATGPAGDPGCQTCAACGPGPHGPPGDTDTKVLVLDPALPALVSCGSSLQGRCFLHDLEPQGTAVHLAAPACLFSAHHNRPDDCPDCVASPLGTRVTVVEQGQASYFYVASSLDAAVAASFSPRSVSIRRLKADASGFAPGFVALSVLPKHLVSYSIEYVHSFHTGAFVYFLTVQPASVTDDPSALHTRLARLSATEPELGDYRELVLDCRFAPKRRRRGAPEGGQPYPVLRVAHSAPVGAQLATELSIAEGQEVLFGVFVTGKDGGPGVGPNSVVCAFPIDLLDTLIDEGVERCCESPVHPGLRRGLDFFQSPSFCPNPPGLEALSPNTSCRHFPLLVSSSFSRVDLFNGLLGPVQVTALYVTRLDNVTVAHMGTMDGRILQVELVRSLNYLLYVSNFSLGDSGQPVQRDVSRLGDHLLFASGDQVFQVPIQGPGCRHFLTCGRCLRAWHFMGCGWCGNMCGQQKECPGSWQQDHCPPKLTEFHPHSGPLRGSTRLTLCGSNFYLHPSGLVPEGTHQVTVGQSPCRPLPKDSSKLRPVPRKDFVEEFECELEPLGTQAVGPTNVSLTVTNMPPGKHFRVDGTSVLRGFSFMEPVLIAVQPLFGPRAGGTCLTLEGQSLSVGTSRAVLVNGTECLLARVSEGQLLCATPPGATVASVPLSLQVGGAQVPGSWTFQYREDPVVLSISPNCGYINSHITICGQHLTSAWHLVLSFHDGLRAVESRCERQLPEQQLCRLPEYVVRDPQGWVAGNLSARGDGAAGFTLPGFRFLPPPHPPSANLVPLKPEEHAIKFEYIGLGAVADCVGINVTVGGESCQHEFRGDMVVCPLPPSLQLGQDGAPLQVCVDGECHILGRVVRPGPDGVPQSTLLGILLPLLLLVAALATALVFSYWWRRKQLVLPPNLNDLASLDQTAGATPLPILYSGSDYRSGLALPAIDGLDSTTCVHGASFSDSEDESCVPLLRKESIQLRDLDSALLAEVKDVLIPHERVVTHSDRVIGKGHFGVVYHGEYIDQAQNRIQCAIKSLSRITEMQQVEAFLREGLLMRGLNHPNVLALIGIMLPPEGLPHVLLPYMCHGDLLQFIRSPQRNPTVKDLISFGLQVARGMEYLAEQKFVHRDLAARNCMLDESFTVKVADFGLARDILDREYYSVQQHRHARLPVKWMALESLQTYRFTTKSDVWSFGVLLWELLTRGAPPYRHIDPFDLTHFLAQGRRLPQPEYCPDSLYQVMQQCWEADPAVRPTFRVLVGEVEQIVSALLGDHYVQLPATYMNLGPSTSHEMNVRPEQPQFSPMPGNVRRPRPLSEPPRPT

C=CC(=O)Nc1cc(-n2c(=O)ccc3cnc4ccc(-n5cccn5)cc4c32)ccc1C [CHMFL-BTK-11]
remaining binding at 1 µM [1]: 98%
remaining binding at 1 µM [2]: 100%
remaining binding at 1 µM [3]: 81%
remaining binding at 1 µM [4]: 94%
remaining binding at 1 µM [5]: 100%
remaining binding at 1 µM [6]: 100%
remaining binding at 1 µM [7]: 69%
remaining binding at 1 µM [8]: 100%
remaining binding at 1 µM [9]: 98%
remaining binding at 1 µM [10]: 74%
remaining binding at 1 µM [11]: 100%
remaining binding at 1 µM [12]: 98%
remaining binding at 1 µM [13]: 100%
remaining binding at 1 µM [14]: 82%
remaining binding at 1 µM [15]: 94%
remaining binding at 1 µM [16]: 97%
remaining binding at 1 µM [17]: 91%
remaining binding at 1 µM [18]: 73%
remaining binding at 1 µM [19]: 96%
remaining binding at 1 µM [20]: 90%
remaining binding at 1 µM [21]: 100%
remaining binding at 1 µM [22]: 100%
remaining binding at 1 µM [23]: 89%
remaining binding at 1 µM [24]: 83%
remaining binding at 1 µM [25]: 72%
